Laboratory results taken from US20120040896A1, “COMPOSITIONS, METHODS AND USES FOR MODULATION OF BRCA 1” (THE REGENTS OF THE UNIVERSITY OF COLORADO, priority 2008, published 2012).
Where a SMILES comes first, the peptide text is derived from it. The star is where a group is joined. Cbz = O=C(OCc1ccccc1)*

How the values were obtained:
Assay type in all cases: cell-based, human
BARD1 = assay: Immunoblot of BARD1 protein levels in breast carcinoma cells; conditions: for effect of pretreatment on E2-induced accumulation of BARD1 protein: MCF7, steroid depleted, pretreatment before E2; for BARD1 protein levels under proteasome inhibition: MCF7, steroid depleted medium, 0.5, 4 or 8 hours
Procedure: (§1) MCF7 cells were obtained from the American Type Culture Collection (#HTB-22). T47D cells were provided by Baylor College of Medicine. Both lines were normally maintained at 37° C. with 5% CO2 in DMEM with 1 mM L-glutamine (Gibco) supplemented with 10% Fetalclone serum (HyClone) and 1% non-essential amino acids (Gibco). For steroid depleted conditions (denoted as CSS), cells were cultured in phenol-free DMEM with 1 mM L-glutamine and 25 mM HEPES supplemented with 10% charcoal/dextran treated fetal bovine serum (Gemini Bioproducts). 17-β-estradiol and MG132 were obtained from Sigma-Aldrich. Cycloheximide, U0126, and p38 inhibitor were obtained from Calbiochem. ICI 182780 was obtained from Tocris Biosciences. LY294002 was obtained from Cell Signaling Technology.
(§2) Whole cell lysates were prepared by washing cells twice with PBS and then scraping into ice-cold PBS. Pelleted cells were resuspended in modified RIPA buffer (50 mM Tris base, 150 mM NaCl, 2 mM EDTA, 1% Triton X-100, 0.5% Na-deoxycholate, 0.1% SDS, 50 mM NaF, 5 mM Na3VO4, plus Roche protease inhibitor tablets). Lysates were incubated for 30 minutes on ice, clarified by centrifugation, and protein concentration determined by Bradford assay (BioRad). Where indicated, lysates harvested without phosphatase inhibitors were treated with λ-phosphatase (New England Biolabs) according to manufacturer's instructions. 100 μg of total protein was loaded per lane for Tris-glycine SDS-PAGE. Samples were transferred to PVDF membrane (Millipore) for 200 volt-hours at 50 V constant at 16° C. Membranes were blocked in 5% dry non-fat milk (Carnation) dissolved in either PBS or TBS (25 mM Tris pH 8.0, 135 mM NaCl, 2.5 mM KCl). Primary antibody incubations were performed overnight at 4° C. diluted in either 0.5% dry non-fat milk/PBS-Tween-20 0.1% or in 3% BSA (Santa Cruz Biotechnology)/TBS-Tween-20 0.1%. Antibody suppliers are: BRCA1 (Ab-4 and Ab-1, Calbiochem); BARD1 (Bethyl Laboratories); Lamin A/C, phospho-(Ser/Thr) Akt Substrate, phospho-5473 Akt, and Akt (Cell Signaling Technology); Cyclin D1 (Lab Vision Corp.); Tubulin (Chemicon). Secondary antibodies were obtained from Amersham/GE Healthcare. Densitometry was performed on 600 dpi TIFF scans of Western blot films with Quantity One software (BioRad). Density values for BRCA1 and BARD1 in each sample were normalized by the value of the corresponding Lamin A/C density as a control for loading.

BRCA1 = assay: Immunoblot of BRCA1 protein levels in breast carcinoma cells; conditions: for effect of pretreatment on E2-induced accumulation of BRCA1 protein: MCF7, steroid depleted, pretreatment before E2; for BRCA1 protein levels under proteasome inhibition: MCF7, steroid depleted medium, 0.5, 4 or 8 hours
Procedure: as §1, §2

Akt = assay: Immunoblot of phosphorylated Akt (pS473), Akt activation; conditions: MCF7, steroid depleted medium, after treatment
Procedure: as §1
Whole cell lysates were prepared by washing cells twice with PBS and then scraping into ice-cold PBS. Pelleted cells were resuspended in modified RIPA buffer (50 mM Tris base, 150 mM NaCl, 2 mM EDTA, 1% Triton X-100, 0.5% Na-deoxycholate, 0.1% SDS, 50 mM NaF, 5 mM Na3VO4, plus Roche protease inhibitor tablets). Lysates were incubated for 30 minutes on ice, clarified by centrifugation, and protein concentration determined by Bradford assay (BioRad). […] Densitometry was performed on 600 dpi TIFF scans of Western blot films with Quantity One software (BioRad). […]

SMILES: C[C@]12CC[C@@H]3c4ccc(O)cc4C[C@@H](CCCCCCCCC[S+]([O-])CCCC(F)(F)C(F)(F)F)[C@H]3[C@@H]1CC[C@@H]2O (some centres unmarked) [ICI 182780]
- effect of pretreatment on E2-induced accumulation of BARD1 protein (BARD1): abolished
- effect of pretreatment on E2-induced accumulation of BRCA1 protein (BRCA1): abolished

SMILES: N#CC(=C(/N)Sc1ccccc1N)/C(C#N)=C(/N)Sc1ccccc1N [MEK 1/2]
- effect of pretreatment on E2-induced accumulation of BRCA1 protein (BRCA1): no effect

SMILES: CC(C)C[C@@H](C=O)NC(=O)[C@H](CC(C)C)NC(=O)[C@H](CC(C)C)NC(=O)OCc1ccccc1 [MG132] (Cbz-Leu-Leu-Leu-aldehyde)
- BARD1 protein levels under proteasome inhibition (BARD1): accumulation
- Akt activation (phosphorylated Akt pS473) (Akt): dramatic activation
- BRCA1 protein levels under proteasome inhibition (BRCA1): accumulation

SMILES: CC(C)C[C@H](NC(=O)[C@H](Cc1ccccc1)NC(=O)c1cnccn1)B(O)O [bortezomib]
- BARD1 protein levels under proteasome inhibition (BARD1): rapidly increased
- Akt activation (phosphorylated Akt pS473) (Akt): only minor activation
- BRCA1 protein levels under proteasome inhibition (BRCA1): rapidly increased

SMILES: C[C@@H]1C[C@@H]([C@H](O)CC2CC(=O)NC(=O)C2)C(=O)[C@@H](C)C1 [cycloheximide, Cycloheximide]
- effect of pretreatment on E2-induced accumulation of BARD1 protein (BARD1): did not prevent
- effect of pretreatment on E2-induced accumulation of BRCA1 protein (BRCA1): did not prevent
